# Like-named read-outs stand apart in the source and are kept apart here.
# Key:
# Assay type in all cases: cell-based
# [1] = tested on: Leishmania mexicana promastigotes; experiment: Half-inhibitory concentration on parasites, modified MTT method; conditions: for IC50: read-out: IC50 on L. mexicana promastigotes; for Selectivity index: promastigotes compared to human dermic fibroblasts; for growth inhibition on promastigotes: concentrations even higher than 100 μM
# Description: Parasites were treated with different concentrations of the synthesized compounds for 48 hours to determine their cytotoxic effect. A dose dependent growth inhibition was observed after this time.
# (§1) Promastigotes of Leishmania mexicana Bel 21 strain were cultured at 26°C in Liver Infusion Tryptone (LIT) medium supplemented with 10% fetal bovine serum (Internegocios). Primary cultures of human dermic fibroblasts were performed at 37°C in DMEN medium (Sigma) supplemented with 10% fetal bovine serum in a CO2 incubator at 5% CO2.
# (§2) To determine the IC50 in parasites and human fibroblasts the protocol described by was followed. Briefly, a suspension of 2 x 10^6 parasites per mL^-1 or 5 x 10^3 fibroblasts per well were transferred into 96 well plates and different concentrations of the compounds were added. Plates were incubated under the corresponding culture conditions for 48 or 72 hours for L. mexicana or human fibroblasts, respectively. Thereafter, parasites plates were centrifuged prior to the elimination of the supernatant. Cell viability was measured by the modified MTT method, where cells were incubated with the MTT substrate at 0.2 mg x mL^-1 for 4 hours. Colored crystals formed were solubilized in DMSO and absorbance was measured at 570 nm. IC50 was obtained from a dose response curve using the software OriginLab Pro 6.0^©.
# human dermic fibroblasts = experiment: Half-inhibitory concentration on human fibroblasts, modified MTT method; conditions: 72 hours
# Description: as §1, §2
# [2] = tested on: Leishmania mexicana promastigotes; experiment: Mitochondrial membrane potential, Mitotracker Red CMXROS, flow cytometry
# Description: In order to determine the energetic state of the mitochondrion after parasites treatment, the compound Mitotraker Red CMXROS was used. As described in the Materials and Methods section, parasites were treated for 6, 16, 24, and 48 hours with each molecule at its IC50, then incubated with Mitotraker Red CMXROS (50 nM) for 30 minutes under culture conditions, and finally analyzed by flow cytometry. […] Additionally, to rule out if Erg itself (the non-azole fraction of the conjugates) could be responsible for this hyperpolarization, parasites were treated with this compound and ΔΨmit was monitored for up to 48 hours by flow cytometry.
# Mitotracker CMX Red(Invitrogen) was used to determine the mitochondrial membrane potential (Ψmit) of treated parasites. After 6, 16, 24, and 48 hours treatment, cells were incubated in culture medium with 50 nM Mitotracker CMX Red for 30 minutes at 26°C in the dark. Thereafter, parasites were washed twice with PBS, resuspended in 1 mL buffer, and analyzed using a cytometer (Beckman Coulter). Parasites incubated with valinomycin (500 nM for 30 minutes) were used as positive control. To evaluate the effect of ergosterone coupled molecules on the mitochondrial membrane potential immediately after molecule addition we used the fluorophore rhodamine-123, a mitochondrion-specific cationic dye, which distributes across the inner mitochondrial membranes strictly according to their membrane potential, as described before. Briefly, 1 x 10^7 parasites were washed twice with rhodamine 123 loading buffer (20 mM Tris-HCl, 130 mM KCl, 1 mM MgCl2, and 2 mM KH2PO4) and incubated with 20 μM rhodamine 123 for 45 minutes at 29°C under agitation. Samples were washed twice, resuspended in 500 μL of the same buffer, and transferred to a quartz cuvette. Fluorescence (ex 488 nm and em 530 nm) was registered in a Hitachi F-7000 Spectrofluorimeter. FCCP was used as control for mitochondrial membrane depolarization.
# [3] = tested on: Leishmania mexicana promastigotes; experiment: Reactive oxygen species (superoxide) determination with dihydroethidium; conditions: Erg-GTr/Erg-GTr2 treated cells; data not shown
# Description: To evaluate the intracellular level of reactive oxygen species (ROS) after Erg-GTr or Erg-GTr2 treatment, parasites were incubated with dihydroethidium, which become oxidized in the presence of the superoxide anion to form the fluorescent DNA-intercalating agent ethidium, i.e. the emitted fluorescence is proportional to the amount of ROS present. Figure 6A represents a ROS production kinetics analysis performed between 6 and 48 hours post-treatment with both molecules. […] In fact, ROS levels increased already during the first 6 hours of treatment when compared with control cells, which maintained a ROS level lower than 2% throughout the whole kinetic study.
# Figure 6 FIGURE 6: Superoxide production after Erg-GTr or Erg-GTr2 treatment. Parasites were treated with 1.4 μM Erg-GTr or 2.3 μM Erg-GTr2 or DMSO (control cells), harvested after different time points and then prepared to measure intracellular superoxide using dyhidroethidium. (A) Superoxide production kinetics in control and treated parasites. […] (B) Representative FACS histograms showing the superoxide-sensitive fluorescence of control and treated promastigotes after 24 hours incubation. The percentages were determined using the WinMDI software. […]
# Dihydroethidium (Invitrogen) was used to detect the intracellular level of superoxide anion. […] Thereafter, samples were washed with PBS and immediately analyzed in a Beckman Coulter Cytometer.
# [4] = tested on: Leishmania mexicana promastigotes; experiment: Alkalinization of acidocalcisomes, acridine orange; conditions: Erg-GTr 1.4 μM or Erg-GTr2 2.4 μM; nigericin 2 μM as control
# Description: Leishmania can store Ca^2+ in different compartments like the endoplasmic reticulum, the mitochondrion, and the acidocalcisomes. The major Ca^2+ reservoir is represented by this last organelle. In order to analyze if the [Ca^2+]cyt increase is due to its release from acidocalcisomes, parasites were charged with acridine orange and assayed fluorimetrically. Since acridine orange accumulates in acidic compartments, it allows detection of alkalinization.
# To evaluate the effect of ergosterone coupled molecules on the Ca^2+ reservoir organelle acidocalcisome, parasites were stained with acridine orange as described previously. Briefly, 1 x 10^7 parasites were washed twice with loading buffer (20 mM Tris-HCl, 130 mM KCl, 1 mM MgCl2, and 2 mM KH2PO4) and incubated for 5 minutes with acridine orange (5 μM). Samples were washed twice, resuspended in 500 μL of the same buffer, and transferred to a stirred quartz cuvette at 29°C. Fluorescence (ex 488 nm and em 530 nm) was registered in a Hitachi F-7000 Spectrofluorimeter. Nigericin was used as control for acidocalcisome alkalinization.
Compound,Selectivity index [1],"IC50 ([1]; Leishmania mexicana, 48 h) [µM]",growth inhibition on promastigotes ([1]; 48 hours),also measured
"1-[5-hydroxy-10-methyl-3-oxo-17-(1,4,5-trimethyl-hex-2-enyl)-1,2,3,4,5,9,10,11,12,13,14,15,16,17-tetradecahydro-cyclopenta[a]phenanthren-6-ylidene-hydrazinocarbonyl]-pyridinium chloride [Erg-GP]",1.0,,,"IC50 ([1]; 48 hours, MTT): 42.4 ± 2.8 µM; IC50 (human dermic fibroblasts): 44.5 µM"
"CC(C)C(C)C=CC(C)C1CCC2C3=CC=C4CC(O)CCC4(C)C3CCC21C (stereo not shown) [Ergosterol, 10,13-dimethyl-17-(1,4,5-trimethyl-hex-2-enyl)-2,3,4,9,10,11,12,13,14,15,16,17-dodecahydro-1H-cyclopenta[a]phenanthren-3-ol, reference compound]",0.8,33.8 ± 4.7,,IC50 (human dermic fibroblasts; Fibroblast): 27 ± 3.5 µM
"CC(C)C(C)C=CC(C)C1CCC2C3=CC(=O)C4(O)CC(=O)CCC4(C)C3CCC21C (stereo not shown) [Ergosterone, 5-hydroxy-10,13-dimethyl-17-(1,4,5-trimethyl-hex-2-enyl)-1,4,5,9,10,11,12,13,14,15,16,17-dodecahydro-2H-cyclopenta[a]phenanthrene-3,6-dione]",3.1,9 ± 0.7,,"IC50 (human dermic fibroblasts; Fibroblast): 28.3 ± 8.5 µM; effect on inner mitochondrial membrane potential (ΔΨmit) ([2]; treatment up to 48 hours, flow cytometry): No differences"
"NNC(=O)[n+]1ccccc1.[Cl-] [GP, 1-hydrazinocarbonyl-pyridinium chloride, reference compound]",,> 200,did not show inhibition,
"C[N+](C)(C)CC(=O)NN [GT, hydrazinocarbonylmethyl-trimethyl-ammonium chloride, reference compound]",,> 200,did not show inhibition,
"NNC(=O)n1cnnc1 [GTr, [1,2,4]triazole-4-carboxylic acid hydrazide]",,158,did not show inhibition,
"CC(=O)N[C@@H](CS)C(=O)O [N-acetyl-cysteine, reference compound]",,,,"effect of ROS scavenger on ROS formation [3]: revert partially; effect of ROS scavenger on mitochondrion hyperpolarization ([2]; Erg-GTr/Erg-GTr2 treated cells, data not shown): did not prevent"
"CO[C@@H]1C[C@@H](C[C@H]2CC[C@H](C)[C@H]([C@@H](C)C(=O)O)O2)O[C@]2(O[C@](C)([C@H]3CC[C@@](C)([C@@H]4O[C@@H]([C@H]5O[C@@](O)(CO)[C@H](C)C[C@@H]5C)C[C@@H]4C)O3)C[C@H]2C)[C@@H]1C [nigericin, reference compound]",,,,acridine orange fluorescence (acidocalcisome alkalinization) [4]: further reduction of the acidity
"[5-hydroxy-10-methyl-3-oxo-17-(1,4,5-trimethyl-hex-2-enyl)-1,2,3,4,5,9,10,11,12,13,14,15,16,17-tetradecahydro-cyclopenta[a]phenanthren-6-ylidene-hydrazinocarbonylmethyl]-trimethyl-ammonium chloride [Erg-GT]",3.5,,,"IC50 ([1]; 48 hours, MTT): 10.4 ± 0.2 µM; IC50 (human dermic fibroblasts): 36.4 µM"

# From paper PMC5354587, “Ergosterone-coupled Triazol molecules trigger mitochondrial dysfunction, oxidative stress, and acidocalcisomal Ca^2+ release in Leishmania mexicana promastigotes” (Microbial Cell, 2015)
